Test results: the OligoGym collection
Where “and” joins values, the source holds several entries; their conditions need not be identical. Equal entries are not always repeated. After the bases stand the sugars from the 5' end (letter, count) and the backbone: PS all phosphorothioate, else s phosphorothioate and o phosphodiester by linkage. Methylation of C is not given here. e = 2'-O-(2-methoxyethyl) (MOE); k = constrained ethyl (cEt); d = 2'-deoxy (DNA)

Biological target: IRF4
Conditions: ASO

Row | Sequence | target mRNA inhibition (SK-MEL-28, 4 µM) [%] | target mRNA inhibition (MM.1R, 1 µM) | also measured
1 | CCTGGCGGCCTCCACG (sugars k3 d10 k3, PS) | -31 | – | –
2 | CCTGGGACTCAGGTGG (sugars k4 d8 k4, PS) | 7 | – | –
3 | CCTGGGAGTAATAGTA (sugars k3 d10 k3, PS) | 53 | – | –
4 | CCTGGTCCAGGTTGCT (sugars k4 d8 k4, PS) | 34 | – | –
5 | CCTGTCACCTGGCAAC (sugars k3 d10 k3, PS) | 41 | – | –
6 | CCTTGAAGAGCGCGGC (sugars k3 d10 k3, PS) | 24 | – | –
7 | CCTTTTCAGAGTCCTG (sugars k3 d10 k3, PS) | 58 | – | –
8 | CGAAAACAGCCGCCGG (sugars k3 d10 k3, PS) | 15 | – | –
9 | CGAGGTGATTCTCGGG (sugars k3 d10 k3, PS) | – | 15% | –
10 | CGATCATCAACTTCTT (sugars k3 d10 k3, PS) | – | 72% and 75% | target mRNA inhibition (MM.1R, 0.0625 µM): 24% and 23%; target mRNA inhibition (MM.1R, 0.25 µM): 50%; target mRNA inhibition (MM.1R, 4 µM): 92% and 93%
11 | CGCAAAACCCCTCAAG (sugars k3 d10 k3, PS) | 19 | – | –
12 | CGCAAGGCTCGGAGCG (sugars k3 d10 k3, PS) | 10 | – | –
13 | CGCAGCATCGAACTCC (sugars k3 d10 k3, PS) | 33 | – | –
14 | CGCCAGGCCGGCTAGG (sugars k3 d10 k3, PS) | 10 | – | –
15 | CGCGAAGGCTCCTACC (sugars k3 d10 k3, PS) | -41 | – | –
16 | CGCGACTCTGTCAGTT (sugars k3 d10 k3, PS) | – | 8% | –
17 | CGCTGAACTGAAATCT (sugars k3 d10 k3, PS) | 37 | – | –
18 | CGGACACGCCCGACCC (sugars k3 d10 k3, PS) | – | 7% | –
19 | CGGATAGATCTGTGGT (sugars k3 d10 k3, PS) | – | – | target mRNA inhibition (MM.1R, 0.0625 µM): -25%; target mRNA inhibition (MM.1R, 0.25 µM): -3%; target mRNA inhibition (MM.1R, 4 µM): 50%
20 | CGGCACAGGCGCGGAC (sugars k3 d10 k3, PS) | 4 | – | –
21 | CGGCAGTCTGCAAACA (sugars k3 d10 k3, PS) | – | 24% | –
22 | CGGGAGCCCGGAGGAA (sugars k3 d10 k3, PS) | – | -3% | –
23 | CGGTCAGCAGAACCAC (sugars k3 d10 k3, PS) | – | -8% | –
24 | CGTAACTCAGGCACCA (sugars k3 d10 k3, PS) | 30 | – | –
25 | CGTAGCCCCTCAGGAA (sugars k3 d10 k3, PS) | – | – | target mRNA inhibition (MM.1R, 4 µM): 81% and 59%
26 | CGTATGTCCATGGGAG (sugars k3 d10 k3, PS) | 88 | – | –

Row | Sequence | target mRNA inhibition (SK-MEL-28, 4 µM) [%] | target mRNA inhibition (MM.1R, 1 µM) | also measured
27 | CGTGATCTGAGACTAC (sugars k3 d10 k3, PS) | – | 25% and 36% | –
28 | CGTGTGCTTGCCAAGC (sugars kdddddddddkekeke, PS) | – | 24% and 11% | –
29 | CGTGTGCTTGCCAAGC (sugars kkdddddddddkdkdk, PS) | – | 67% and 53% | –
30 | CTAAACTCCTAAGTAC (sugars k3 d10 k3, PS) | 14 | – | –
31 | CTAACAGATAACGAGG (sugars k3 d10 k3, PS) | 23 | – | –
32 | CTAACTTACAGGACTA (sugars k3 d10 k3, PS) | 31 | – | –
33 | CTAAGCTTGATAAAGG (sugars k3 d10 k3, PS) | 54 | – | –
34 | CTAATACCTACCTGCC (sugars k3 d10 k3, PS) | 47 | – | –
35 | CTACAAGCAGTCATCA (sugars k3 d10 k3, PS) | 44 | – | –
36 | CTACAAGGTCTGAGTT (sugars k3 d10 k3, PS) | 17 | – | –
37 | CTACAGGCACGGCTTC (sugars k3 d10 k3, PS) | 52 | – | –
38 | CTACTATTGTGGAAAA (sugars k3 d10 k3, PS) | 3 | – | –
39 | CTAGAAAGAGCTGGTA (sugars k3 d10 k3, PS) | 15 | – | –
40 | CTAGAAAGTGATGCTC (sugars k3 d10 k3, PS) | 39 | – | –
41 | CTAGAACATGATGAGA (sugars k3 d10 k3, PS) | 29 | – | –
42 | CTAGATAACATGAGAG (sugars k3 d10 k3, PS) | 53 | – | –
43 | CTATAATTGGCACGAG (sugars k3 d10 k3, PS) | 63 | – | –
44 | CTATAGTGTTCCAGGA (sugars kkdddddddddkekek, PS) | – | 43% | –
45 | CTCACGAGCACCTCAG (sugars k3 d10 k3, PS) | 42 | – | –
46 | CTCACTGCTCACTAAG (sugars k3 d10 k3, PS) | 64 | – | –
47 | CTCCAAAGCATAGAGT (sugars k3 d10 k3, PS) | 23 | – | –
48 | CTCCAACCCTAGATAA (sugars k3 d10 k3, PS) | 2 | – | –
49 | CTCCAGGGAATGGATA (sugars k3 d10 k3, PS) | 27 | – | –
50 | CTCCATTCAAGCCAGT (sugars k3 d10 k3, PS) | 58 | – | –
51 | CTCCCAGAGTTGTTCC (sugars k3 d10 k3, PS) | 34 | – | –
52 | CTCCTACCCGCCTGCT (sugars k3 d10 k3, PS) | 15 | – | –

Row | Sequence | target mRNA inhibition (SK-MEL-28, 4 µM) [%] | target mRNA inhibition (MM.1R, 1 µM) | also measured
53 | CTCCTATAACTTCTCC (sugars k3 d10 k3, PS) | 33 | – | –
54 | CTCGGCCGCCGCCCTC (sugars k3 d10 k3, PS) | 37 | – | –
55 | CTCTATAGTGTTCCAG (sugars kkddddddddddkeke, PS) | – | 27% | –
56 | CTCTATAGTGTTCCAG (sugars kkdddddddddkdkdk, PS) | – | 31% | –
57 | CTCTATAGTGTTCCAG (sugars kkkdddddddddkeke, PS) | – | 49% | –
58 | CTCTATAGTGTTCCAG (sugars kkkddddddddkekek, PS) | – | 15% | –
59 | CTCTGTAACTGACTAA (sugars k3 d10 k3, PS) | – | 16% | –
60 | CTCTTAGGCACATCAA (sugars k3 d10 k3, PS) | 61 | – | –
61 | CTCTTCAGGCACCCAC (sugars k3 d10 k3, PS) | – | 13% | –
62 | CTGAAGCTTAGTTATC (sugars k3 d10 k3, PS) | 38 | – | –
63 | CTGAGATAAGAAGCAC (sugars k3 d10 k3, PS) | 37 | – | –
64 | CTGCAACTGGCTCACT (sugars k3 d10 k3, PS) | 10 | – | –
65 | CTGCAGGGTAATTTAG (sugars k3 d10 k3, PS) | 34 | – | –
66 | CTGCATCGAGATCAGT (sugars k3 d10 k3, PS) | 52 | – | –
67 | CTGCATGAAAGTGTGT (sugars k3 d10 k3, PS) | 56 | – | –
68 | CTGCCACTGGTAACTG (sugars k3 d10 k3, PS) | – | 21% | –
69 | CTGCGGGTCCTCCAGG (sugars k3 d10 k3, PS) | 20 | – | –
70 | CTGCTCTGGCACAGTC (sugars k3 d10 k3, PS) | 83 | – | –
71 | CTGCTTGAGGTTTTCC (sugars k3 d9 k3 e1, PS) | – | 65% | target mRNA inhibition (MM.1R, 0.074 µM): 18%; target mRNA inhibition (MM.1R, 0.222 µM): 36%; target mRNA inhibition (MM.1R, 0.666 µM): 60%; target mRNA inhibition (MM.1R, 2 µM): 82%
72 | CTGCTTGAGGTTTTCC (sugars kkdddddddddekeke, PS) | – | 49% | –
73 | CTGCTTGAGGTTTTCC (sugars kkdddddddddkekek, PS) | – | 30% | –
74 | CTGGATTGCTGATGTG (sugars k3 d10 k3, PS) | – | 56% and 36% | target mRNA inhibition (MM.1R, 4 µM): 83% and 71%
75 | CTGGCCTGAAGCTTAG (sugars k3 d10 k3, PS) | – | 25% | –
76 | CTGTAACAGGCTATCA (sugars k3 d10 k3, PS) | 44 | – | –
77 | CTGTATCATGCATACC (sugars k3 d10 k3, PS) | 61 | – | –
78 | CTGTATTTATGCCCTC (sugars k3 d10 k3, PS) | 60 | – | –

Row | Sequence | target mRNA inhibition (SK-MEL-28, 4 µM) [%] | target mRNA inhibition (MM.1R, 1 µM) | also measured
79 | CTGTCACCTGGCAACC (sugars k3 d10 k3, PS) | – | 11% | –
80 | CTGTGTAATGTAGGGA (sugars k3 d10 k3, PS) | 42 | – | –
81 | CTGTTACCGATGCTTC (sugars k2 d9 e3 k2, PS) | – | 64% and 56% | –
82 | CTGTTACCGATGCTTC (sugars k3 d10 k3, PS) | – | 56% and 55% | target mRNA inhibition (MM.1R, 0.0625 µM): 18%; target mRNA inhibition (MM.1R, 0.25 µM): 36%; target mRNA inhibition (MM.1R, 4 µM): 82%
83 | CTGTTACCGATGCTTC (sugars kkdddddddddekeke, PS) | – | 50% and 60% | –
84 | CTGTTACCGATGCTTC (sugars kkdddddddddkdkdk, PS) | – | 58% and 52% | –
85 | CTTAAGCAAGTGGAGG (sugars k3 d10 k3, PS) | 70 | – | –
86 | CTTAGTCAGAATCTGT (sugars k3 d10 k3, PS) | – | 1% | –
87 | CTTATTAGACTGACAG (sugars k3 d10 k3, PS) | 41 | – | –
88 | CTTATTTGTGGCTCAA (sugars k3 d10 k3, PS) | 55 | – | –
89 | CTTCCCTGAGAAATGG (sugars k4 d8 k4, PS) | 36 | – | –
90 | CTTCTTTATAGTAGGT (sugars k3 d10 k3, PS) | 20 | – | –
91 | CTTGGCAGGGAGCGGC (sugars k3 d10 k3, PS) | – | 25% | –
92 | CTTTATCAAGACAAGG (sugars k3 d10 k3, PS) | 56 | – | –
93 | CTTTGGGCACCAAAAG (sugars k3 d10 k3, PS) | – | -33% | –
94 | GAAACGAGCCAGTGCA (sugars k3 d10 k3, PS) | 52 | – | –
95 | GAAACGGCCTGGAGGT (sugars k3 d10 k3, PS) | – | 17% | –
96 | GAAAGAGCTGGTAGGT (sugars k3 d10 k3, PS) | 0 | – | –
97 | GAAATAGCATCAGAGC (sugars k3 d10 k3, PS) | 45 | – | –
98 | GAAATCACGAGGTTGC (sugars k3 d10 k3, PS) | 62 | 32% | target mRNA inhibition (MM.1R, 0.0625 µM): -6%; target mRNA inhibition (MM.1R, 0.074 µM): -3%; target mRNA inhibition (MM.1R, 0.222 µM): 16%; target mRNA inhibition (MM.1R, 0.25 µM): 9%; target mRNA inhibition (MM.1R, 0.666 µM): 22%; target mRNA inhibition (MM.1R, 2 µM): 52%; target mRNA inhibition (MM.1R, 4 µM): 64%
99 | GAAATGTGTTGGAAGA (sugars k3 d10 k3, PS) | 68 | – | –
100 | GAACAAAAGGTTCCCG (sugars k3 d10 k3, PS) | 18 | – | –
101 | GAACAAGTGTATCTTT (sugars k3 d10 k3, PS) | – | 5% | –
102 | GAACCACAAGCAGTGA (sugars k3 d10 k3, PS) | – | -32% | –
